Source: US20210395226A1, “SUBSTITUTED ARYL COMPOUND AND PREPARATION METHOD THEREFOR AND USE THEREOF” (SICHUAN KELUN-BIOTECH BIOPHARMACEUTICAL CO., LTD., priority 2018, published 2021)
Read-outs that look alike come from different tables or passages of the source.

Key:
[1] = target: T1, Adenosine A2a receptor (human) membrane (Homo sapiens, UniProt P29274); experiment: Determination of competitive inhibition constant (Ki) for adenosine A2a receptor, [3H]-CGS-21680 radioligand; format: binding; details: for Ki: human A2a receptor membrane, 6.0 nM [3H]-CGS-21680, read-out: Ki(A2a); for Ki(A1)/Ki(A2a): selectivity ratio A1 over A2a
T1 construct: purchased PerkinElmer RBHA2AM400UA
Description: (§1) Test Example 1: Determination of Competitive Inhibition Constant (Ki) for Adenosine A1 and A2a Receptors
Adenosine A2a receptor (human) membrane (PerkinElmer, RBHA2AM400UA),
assay buffer for A2a (50 mM Tris-HCl, 10 mM MgCl2, 1 mM EDTA, pH7.4), used to dilute adenosine A2a receptor (human) membrane (human origin) and [^3H]-CGS-21680; and
wash buffer for A2a (50 mM Tris-HCl, 154 mM NaCl, pH7.4).
(§2) Adenosine A1 receptor membrane was diluted to 0.025 μg/μl with assay buffer for A1, and Adenosine A2a receptor membrane was diluted to 0.05 μg/μl with assay buffer for A2a, so as to obtain Adenosine A1 receptor membrane dilution and Adenosine A2a receptor membrane dilution.
(§3) The compound to be tested and CGS-15943 were diluted with DMSO, and 1 W of the compound to be tested, high value control (0.5% DMSO), low value control (1000 nM CGS-15943) were added to a 96-well plate, and 100 W of Adenosine A1 receptor membrane dilution (containing 2.5 μg of membrane) was added to each well of the 96-well plate to obtain A1 detection plate; following the same steps, 100 W of Adenosine A2a receptor membrane dilution (containing 5.0 μg membrane) was added to each well of the 96-well plate to obtain A2a detection plate.
(§4) To the A1 detection plate, 100 μl of radioisotope-labeled ligand [^3H]-DPCPX (diluted with assay buffer for A1, working concentration of which was 1.0 nM) was added; and to the A2a detection plate, 100 μl of radioisotope-labeled ligand [^3H]-CGS-21680 (diluted with assay buffer for A2a, working concentration of which was 6.0 nM) was added. The A1 and A2a detection plates were sealed with tape, and incubated at room temperature for 1 h and 2 h, respectively.
(§5) Unifilter-96 GF/C filter plates were prepared, 50 μl of 0.3% PEI was added to each well of the Unifilter-96 GF/C filter plates, and the resulting filter plates were incubated at room temperature for not less than 0.5 h.
(§6) After the incubation was completed, the reaction solution was transferred from the A1 detection plate and the A2a detection plate to two Unifilter-96 GF/C filter plates, and washed with pre-cooled wash buffer for A1 and wash buffer for A2a, and then the filter plates were dried, sealed at bottom, then 50 W of Microscint 20 fluid scintillation cocktail was added, and then the filter plates were sealed at top, and counted by MicroBeta2 Reader.
(§7) Inhibition rate %=100−(signal value of test well−signal average value of low value control)/(signal average value of high value control−signal average value of low value control)*100.
(§8) EXCEL XLfit was used to fit IC50.
(§9) The calculation formula for competitive inhibition constant (Ki) was: Ki=IC50/(1+concentration of isotope-labeled ligand/Kd), wherein Kd was the dissociation constant of the isotope-labeled ligand.

[2] = target: T2, Adenosine A1 receptor (human) membrane (Homo sapiens, UniProt P30542); experiment: Determination of competitive inhibition constant (Ki) for adenosine A1 receptor, [3H]-DPCPX radioligand; format: binding; details: 1.0 nM [3H]-DPCPX
T2 construct: purchased PerkinElmer ES-010-M400UA
T2 sequence (P30542 1-326): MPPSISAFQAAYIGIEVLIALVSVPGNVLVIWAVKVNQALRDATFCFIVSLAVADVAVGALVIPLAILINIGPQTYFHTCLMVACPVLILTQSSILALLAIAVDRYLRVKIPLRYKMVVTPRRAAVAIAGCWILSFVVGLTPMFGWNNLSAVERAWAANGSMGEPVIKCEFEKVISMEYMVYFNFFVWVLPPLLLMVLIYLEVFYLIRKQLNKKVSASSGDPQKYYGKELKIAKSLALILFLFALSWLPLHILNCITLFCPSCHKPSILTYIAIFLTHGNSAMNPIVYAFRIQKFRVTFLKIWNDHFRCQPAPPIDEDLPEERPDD
Description: as §1
[^3H]-DPCPX (PerkinElmer, NET974250UC),
Adenosine A1 receptor (human) membrane (PerkinElmer, ES-010-M400UA),
assay buffer for A1 (25 mM HEPES, 5 mM MgCl2, 1 mM CaCl2, 100 mM NaCl, pH7.4), used to dilute adenosine A1 receptor (human) membrane and [^3H]-DPCPX;
wash buffer for A1 (25 mM HEPES, 5 mM MgCl2, 1 mM CaCl2, 100 mM NaCl, pH7.4);
as §2, §3, §4, §5, §6, §7, §8, §9

[3] = Pharmacokinetics (PK) and distribution in brain tissue in rats; format: in vivo, male SD rats
Description: Test Example 3: Study on Pharmacokinetics (PK) and Distribution in Brain Tissue in Rats
The compounds of the present application were administered to male SD rats by intravenous (IV) and intragastric (PO) respectively to investigate the pharmacokinetic characteristics. The dosages of IV and PO were 1 mg/kg and 5 mg/kg, respectively. The solvent for IV was a mixture of 5% DMSO, 5% Solutol (polyethylene glycol 15-hydroxystearate) and 90% saline, and the solvent for PO was 0.5% MC (methyl cellulose sodium). Before IV administration (0 h) and at 0.083 h, 0.25 h, 0.5 h, 1 h, 2 h, 4 h, 6 h, 8 h and 24 h time points after administration, blood samples were collected; before PO administration (0 h) and at 0.25 h, 0.5 h, 1 h, 2 h, 4 h, 6 h, 8 h and 24 h time points after administration, blood samples were collected; the blood samples were anticoagulated with EDTA.K2, and centrifuged to obtain plasma samples. For Compound 11, brain tissue samples were taken and homogenized at 0.25 h, 0.5 h, 1 h, 4 h and 8 h; for Compounds 19 and 32, and brain tissue samples were taken and homogenized at 0.25 h, 0.5 h, 1 h and 8 h (three SD rats were selected for the experiment of distribution in brain tissue at each time point), and the resulting brain tissue homogenate samples were stored at −80° C. The plasma samples and brain tissue homogenate samples were subjected to precipitation of protein, and then LC-MS/MS analysis was performed.
Pharmacokinetic parameters were calculated by means of non-compartmental model by using WinNonlin 6.3 software.

T1 sequence (P29274 whole entry): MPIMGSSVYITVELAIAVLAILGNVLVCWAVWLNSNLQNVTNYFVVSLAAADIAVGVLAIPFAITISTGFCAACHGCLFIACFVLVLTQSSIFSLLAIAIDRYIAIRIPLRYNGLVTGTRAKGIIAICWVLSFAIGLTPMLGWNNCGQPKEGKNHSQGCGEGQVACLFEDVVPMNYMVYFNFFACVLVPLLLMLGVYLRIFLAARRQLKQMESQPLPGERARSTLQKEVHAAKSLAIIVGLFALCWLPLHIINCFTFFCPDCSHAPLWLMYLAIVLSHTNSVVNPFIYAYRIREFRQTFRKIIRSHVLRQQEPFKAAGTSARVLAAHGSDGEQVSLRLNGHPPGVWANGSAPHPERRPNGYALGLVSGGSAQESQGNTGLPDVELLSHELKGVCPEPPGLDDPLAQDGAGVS

In the case of `Cc1ncnc2ccc(-c3cnc(NC(=O)N4CCN(C)CC4)nc3-c3ccc(F)cc3)cc12` [Compound 30, N-(4-(4-fluorophenyl)-5-(4-methylquinazolin-6-yl)pyrimidin-2-yl)-4-methylpiperazine-1-carboxamide], the Ki [1] is reported as 21.2 nM, the “Ki(A1)/Ki(A2a)” value [1] is reported as 75.0 and the Ki [2] is reported as 1590 nM.
For `COCCN(C)C(=O)Nc1ncc(-c2ccc3ncnc(C)c3c2)c(-c2ccc(F)cc2)n1` [Compound 31, 3-(4-(4-fluorophenyl)-5-(4-methylquinazolin-6-yl)pyrimidin-2-yl)-1-(2-methoxyethyl)-1-methylurea], the Ki [1] was 27.7 nM, the “Ki(A1)/Ki(A2a)” value [1] was 120.1 and the Ki [2] was 3330 nM.
For `Cc1ncnc2ccc(-c3cc(F)c(NC(=O)N4CCOCC4)nc3-c3ccc(F)cc3)cc12` [Compound 32, N-(3-fluoro-6-(4-fluorophenyl)-5-(4-methylquinazolin-6-yl)pyridin-2-yl) morpholine-4-carboxamide], the Ki [1] was 9.5 nM, the “Ki(A1)/Ki(A2a)” value [1] was 56.2 and the Ki [2] was 534 nM. It also gave a bioavailability ([3]; male, SD, plasma, rat, oral 5 mg/kg compared with intravenous 1 mg/kg) of 80.2%, a Cmax ([3]; male, SD, rat plasma, IV, 1 mg/kg) of 1480 ng/mL and an AUC(0-t) ([3]; male, SD, rat plasma, IV, 1 mg/kg, read-out: AUClast) of 1820 ng·h/mL. For the same molecule, the AUC(0-t) ([3]; male, SD, rat plasma, PO, 5 mg/kg, read-out: AUClast (plasma)) was 7310 ng·h/mL, the “AUClast (brain)” value ([3]; rat brain tissue, PO, 5 mg/kg) was 52.9 ng·h/g and the “Plasma AUClast/brain AUClast” value ([3]; rat, PO, 5 mg/kg) was 138/1.
With `Cc1ncnc2ccc(-c3cnc(NC(=O)N4CCO[C@@H](C)C4)nc3-c3ccc(F)cc3)cc12` [Compound 34, (S)-N-(4-(4-fluorophenyl)-5-(4-methylquinazolin-6-yl)pyrimidin-2-yl)-2-methylmorpholine-4-carboxamide] the Ki [1] was 12.6 nM, the “Ki(A1)/Ki(A2a)” value [1] was 42.7 and the Ki [2] was 538 nM.
With `Cc1cc(-c2cnc(NC(=O)N3CCCCC3)nc2-c2ccc(F)cc2)cc(Cl)n1` [Compound 35, N-(5-(2-chloro-6-methylpyridin-4-yl)-4-(4-fluorophenyl)pyrimidin-2-yl) piperidine-1-carboxamide] the Ki [1] was 14.7 nM, the “Ki(A1)/Ki(A2a)” value [1] was 126.9 and the Ki [2] was 1870 nM.
With `Cc1cc(-c2cnc(NC(=O)N3CCO[C@@H](C)C3)nc2-c2ccc(F)cc2)cc(Cl)n1` [Compound 36, (S)-N-(5-(2-chloro-6-methylpyridin-4-yl)-4-(4-fluorophenyl)pyrimidin-2-yl)-2-methylmorpholine-4-carboxamide] the Ki [1] was 10.6 nM, the “Ki(A1)/Ki(A2a)” value [1] was 55.0 and the Ki [2] was 583 nM.
For `Cc1cc(-c2cnc(NC(=O)N3C[C@@H](C)O[C@@H](C)C3)nc2-c2ccc(F)cc2)cc(Cl)n1` [Compound 37, (2R,6S)-N-(5-(2-chloro-6-methylpyridin-4-yl)-4-(4-fluorophenyl)pyrimidin-2-yl)-2,6-dimethylmorpholine-4-carboxamide], the Ki [1] was 23.3 nM, the “Ki(A1)/Ki(A2a)” value [1] was 173.7 and the Ki [2] was 4050 nM.
With `Cc1cc(-c2cnc(NC(=O)N3CCO[C@H](C)C3)nc2-c2ccc(F)cc2)cc(Cl)n1` [Compound 38, (R)-N-(5-(2-chloro-6-methylpyridin-4-yl)-4-(4-fluorophenyl)pyrimidin-2-yl)-2-methylmorpholine-4-carboxamide] the Ki [1] was 13.1 nM, the “Ki(A1)/Ki(A2a)” value [1] was 107.4 and the Ki [2] was 1410 nM.
For `Cc1ncnc2ccc(-c3cnc(NC(=O)N4C[C@@H](C)O[C@@H](C)C4)nc3-c3ccc(F)cc3)cc12` [Compound 39, (2R,6S)-N-(4-(4-fluorophenyl)-5-(4-methylquinazolin-6-yl)pyrimidin-2-yl)-2,6-dimethylmorpholine-4-carboxamide], the Ki [1] was 11 nM, the “Ki(A1)/Ki(A2a)” value [1] was 74.0 and the Ki [2] was 814 nM.
In the case of `Cc1ncnc2ccc(-c3cnc(NC(=O)N4CCO[C@H](C)C4)nc3-c3ccc(F)cc3)cc12` [Compound 40, (R)-N-(4-(4-fluorophenyl)-5-(4-methylquinazolin-6-yl)pyrimidin-2-yl)-2-methylmorpholine-4-carboxamide], the Ki [1] is reported as 5.4 nM, the “Ki(A1)/Ki(A2a)” value [1] is reported as 76.2 and the Ki [2] is reported as 411 nM.
With `Cc1ncnc2ccc(-c3ccc(NC(=O)N4CCOCC4)nc3-c3ccc(F)cc3)cc12` [Compound 41, N-(6-(4-fluorophenyl)-5-(4-methylquinazolin-6-yl)pyridin-2-yl)morpholine-4-carboxamide] the Ki [1] was 1.92 nM, the “Ki(A1)/Ki(A2a)” value [1] was 1319.0 and the Ki [2] was 2530 nM.
For `Cc1ncnc2ccc(-c3c(Cl)cc(NC(=O)N4CCOCC4)nc3-c3ccc(F)cc3)cc12` [Compound 42, N-(4-chloro-6-(4-fluorophenyl)-5-(4-methylquinazolin-6-yl)pyridin-2-yl) morpholine-4-carboxamide], the Ki [1] was 2.3 nM, the “Ki(A1)/Ki(A2a)” value [1] was 144.6 and the Ki [2] was 333 nM.
For `Cc1cc(-c2c(C#N)cc(NC(=O)N3CCOCC3)nc2-c2ccc(F)cc2)cc(Cl)n1` [Compound 45, N-(2′-chloro-4-cyano-2-(4-fluorophenyl)-6′-methyl-[3,4′-bipyridyl]-6-yl) morpholine-4-carboxamide], the Ki [1] was 11.8 nM, the “Ki(A1)/Ki(A2a)” value [1] was 115.3 and the Ki [2] was 1370 nM.
For `Cc1ccnc2ccc(-c3c(-c4ccc(F)cc4)nc(NC(=O)N4CCOCC4)nc3C3CC3)cc12` [Compound 47, N-(4-cyclopropyl-6-(4-fluorophenyl)-5-(4-methylquinolin-6-yl)pyrimidin-2-yl)morpholine-4-carboxamide], the Ki [1] was 5.13 nM, the “Ki(A1)/Ki(A2a)” value [1] was 42.4 and the Ki [2] was 217 nM.
